“And” between values parts separate entries of the source, which are not always exact repeats. Identical values can stand only once.
What was measured:
[1] = tested on: P. falciparum Dd2-2D4; test: P. falciparum asexual blood stage (ABS) growth assay, SYBR Green, 72 h, wild-type parasites; format: cell-based, Plasmodium falciparum; conditions: for ABS growth dose-response, normalized signal (Replicates 1-3) / parasite growth, replicate wells (Fig 1b): Dd2-2D4
Method: Parasites were maintained under standard culture conditions as described previously[56],[57]. […] The P. falciparum Dd2 cell lines used in this study (Dd2-2D4, halofuginone-induced, and HFGR-I) have previously undergone whole genome sequencing in our labs.
This assay was performed as previously described[8]. In short, P. falciparum erythrocytic-stage parasites at 1% parasitemia and 1% hematocrit in RPMI + 0.5% Albumax were seeded at 40 μL/well in 384-well plates with test compounds in triplicate, dose-response format with 10 μM dihydroartemisinin as a kill-control and blank (no compound) wells as a growth-control. […] After 72 h, growth was quantified by measuring fluorescence (Molecular Devices SpectraMax iD5) following SYBR Green 1 staining. Data were analyzed in Excel and plotted in PRISM (V. 8.4.3–9.1.0, GraphPad).

[2] = tested on: halofuginone-induced P. falciparum (elevated proline homeostasis); test: P. falciparum ABS growth assay, SYBR Green, 72 h, halofuginone-induced parasites; format: cell-based, Plasmodium falciparum; conditions: for parasite growth, replicate wells (Fig 1b): Halofuginone-Induced
Method in brief: (§1)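 Dd2-derived erythrocytic-stage parasites at 1% parasitemia and 1% hematocrit in RPMI + 0.5% Albumax were exposed to compounds in triplicate dose-response. Controls were 10 μM dihydroartemisinin (kill) and no-compound wells (growth). Growth was read by SYBR Green 1 fluorescence after 72 h and used to derive EC50.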

[3] = tested on: HFGR-I P. falciparum (elevated proline homeostasis and PfcProRS^L482H); test: P. falciparum ABS growth assay, SYBR Green, 72 h, HFGR-I parasites; format: cell-based, Plasmodium falciparum; conditions: for parasite growth, replicate wells (Fig 1b): HFGR-I
Method in brief: as §1

[4] = target: HsProRS (Homo sapiens, UniProt P07814); test: TR-FRET ligand displacement assay with tracer MAT379 (CoraFluor-1-Halo and anti-His6 antibody formats); format: binding; design: made in house; host or cells: E. coli SoluBL-21; conditions: for TR-FRET dose-response, normalized signal (SI Fig 11): individual replicates; for TR-FRET dose-response, normalized signal (SI Fig 11) / normalized TR-FRET ligand displacement signal, dose-response replicates (SI Fig 6): listed as NCP26 (3)
Chain of HsProRS (P07814 996-1512): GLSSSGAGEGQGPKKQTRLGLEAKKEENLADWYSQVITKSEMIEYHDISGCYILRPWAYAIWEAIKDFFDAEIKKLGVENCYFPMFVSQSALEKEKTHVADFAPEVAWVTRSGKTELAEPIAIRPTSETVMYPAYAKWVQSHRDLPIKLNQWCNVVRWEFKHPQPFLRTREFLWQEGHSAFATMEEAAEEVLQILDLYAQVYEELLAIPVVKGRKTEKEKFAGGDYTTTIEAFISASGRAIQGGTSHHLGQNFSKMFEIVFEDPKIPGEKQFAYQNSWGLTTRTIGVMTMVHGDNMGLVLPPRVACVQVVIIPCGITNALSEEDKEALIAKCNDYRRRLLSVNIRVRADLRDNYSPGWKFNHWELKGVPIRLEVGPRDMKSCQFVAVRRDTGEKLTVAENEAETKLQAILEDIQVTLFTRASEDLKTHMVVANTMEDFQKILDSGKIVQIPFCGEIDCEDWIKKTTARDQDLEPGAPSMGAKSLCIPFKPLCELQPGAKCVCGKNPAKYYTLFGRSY

[5] = Log[inhibitor] (M) -6.806, listed as NCP26 (3)
[6] = Log[inhibitor] (M) -7.107, listed as NCP26 (3)
[7] = Log[inhibitor] (M) -7.408, listed as NCP26 (3)
[8] = Log[inhibitor] (M) -7.709, listed as NCP26 (3)
[9] = Log[inhibitor] (M) -5.602, listed as NCP26 (3)
[10] = Log[inhibitor] (M) -8.010, listed as NCP26 (3)

## O=C(NC1Cc2ccccc2C1)c1nccnc1NC(=O)N1CCCCC1 [NCP26]
[1]; Log[inhibitor] (M) -4.699
  ABS growth dose-response, normalized signal (Replicates 1-3): 0
  parasite growth, replicate wells (Fig 1b): 0.00E+00
[1]; Log[inhibitor] (M) -5.000
  ABS growth dose-response, normalized signal (Replicates 1-3): 0
  parasite growth, replicate wells (Fig 1b): 0.00E+00
[1]; Log[inhibitor] (M) -5.301
  ABS growth dose-response, normalized signal (Replicates 1-3): 0
  parasite growth, replicate wells (Fig 1b): 0.00E+00
[1]; Log[inhibitor] (M) -5.602
  ABS growth dose-response, normalized signal (Replicates 1-3): 0
  parasite growth, replicate wells (Fig 1b): 0.00E+00
[1]; Log[inhibitor] (M) -5.903
  ABS growth dose-response, normalized signal (Replicates 1-3): 0
  parasite growth, replicate wells (Fig 1b): 0.00E+00
[1]; Log[inhibitor] (M) -6.204
  ABS growth dose-response, normalized signal (Replicates 1-3): 0
  parasite growth, replicate wells (Fig 1b): 0.00E+00
[1]; Log[inhibitor] (M) -6.505
  ABS growth dose-response, normalized signal (Replicates 1-3): 0
  parasite growth, replicate wells (Fig 1b): 0.00E+00
[1]; [5]
  parasite growth, replicate wells (Fig 1b): 6.00E+00 (2×) and 5.00E+00
[1]; [6]
  parasite growth, replicate wells (Fig 1b): 3.30E+01 and 2.80E+01 and 3.00E+01
[1]; [7]
  parasite growth, replicate wells (Fig 1b): 9.50E+01 and 9.40E+01 and 9.90E+01
[1]; [8]
  parasite growth, replicate wells (Fig 1b): 1.09E+02 and 1.04E+02 and 1.02E+02
[1]; Log[inhibitor] (M) -8.010
  ABS growth dose-response, normalized signal (Replicates 1-3): 101
  parasite growth, replicate wells (Fig 1b): 1.01E+02
[1]; Plasmodium falciparum, DD2, SI Fig 16b, values on -log scale, read-out: ABS - Dd2-2D4 (converted)
  EC50: 67.5 nM
[2]; Log[inhibitor] (M) -4.699, listed as NCP26 (3)
  parasite growth, replicate wells (Fig 1b): 0.00E+00 and -1.00E+00 and -2.00E+00
[2]; Log[inhibitor] (M) -5.000, listed as NCP26 (3)
  parasite growth, replicate wells (Fig 1b): 1.00E+00 (2×) and -1.00E+00
[2]; Log[inhibitor] (M) -5.301, listed as NCP26 (3)
  parasite growth, replicate wells (Fig 1b): -1.00E+00 (2×) and 7.00E+00
[2]; [9]
  parasite growth, replicate wells (Fig 1b): 1.00E+00 and 5.00E+00 and 0.00E+00
[2]; Log[inhibitor] (M) -5.903, listed as NCP26 (3)
  parasite growth, replicate wells (Fig 1b): 0.00E+00 and -1.00E+00 (2×)
[2]; Log[inhibitor] (M) -6.204
  parasite growth, replicate wells (Fig 1b): -2.00E+00
  dose-response value, Replicates 1-3 (SI Fig 2e): -2.0
[2]; Log[inhibitor] (M) -6.505, listed as NCP26 (3)
  parasite growth, replicate wells (Fig 1b): 0.00E+00 (2×) and -1.00E+00
[2]; [5]
  parasite growth, replicate wells (Fig 1b): 1.80E+01 (2×) and 1.90E+01
[2]; [6]
  parasite growth, replicate wells (Fig 1b): 9.50E+01 and 8.90E+01 and 9.10E+01
[2]; [7]
  parasite growth, replicate wells (Fig 1b): 1.05E+02 and 1.12E+02 and 1.07E+02
[2]; [8]
  parasite growth, replicate wells (Fig 1b): 1.09E+02 and 1.08E+02 and 1.10E+02
[2]; [10]
  parasite growth, replicate wells (Fig 1b): 9.90E+01 and 1.01E+02 and 1.04E+02
[3]; Log[inhibitor] (M) -4.699
  parasite growth, replicate wells (Fig 1b): 0.00E+00
  dose-response value, Replicates 1-3 (SI Fig 2f): 0
[3]; Log[inhibitor] (M) -5.000
  parasite growth, replicate wells (Fig 1b): 0.00E+00
  dose-response value, Replicates 1-3 (SI Fig 2f): 0
[3]; Log[inhibitor] (M) -5.301
  parasite growth, replicate wells (Fig 1b): 0.00E+00
  dose-response value, Replicates 1-3 (SI Fig 2f): 0
[3]; [9]
  parasite growth, replicate wells (Fig 1b): 0.00E+00 and 1.00E+00 (2×)
[3]; Log[inhibitor] (M) -5.903
  parasite growth, replicate wells (Fig 1b): 0.00E+00
  dose-response value, Replicates 1-3 (SI Fig 2f): 0
[3]; Log[inhibitor] (M) -6.204
  parasite growth, replicate wells (Fig 1b): 0.00E+00
  dose-response value, Replicates 1-3 (SI Fig 2f): 0
[3]; Log[inhibitor] (M) -6.505
  parasite growth, replicate wells (Fig 1b): 1.00E+00
  dose-response value, Replicates 1-3 (SI Fig 2f): 1
[3]; [5]
  parasite growth, replicate wells (Fig 1b): 7.00E+00 (2×) and 6.00E+00
[3]; [6]
  parasite growth, replicate wells (Fig 1b): 3.90E+01 and 3.70E+01 (2×)
[3]; [7]
  parasite growth, replicate wells (Fig 1b): 9.90E+01 and 1.07E+02 and 1.00E+02
[3]; [8]
  parasite growth, replicate wells (Fig 1b): 1.11E+02 (2×) and 1.00E+02
[3]; [10]
  parasite growth, replicate wells (Fig 1b): 1.08E+02 and 1.07E+02 and 1.06E+02
[4]; 100 μM proline vs no substrates
  fold increased affinity in the presence of proline: > 750 fold
[4]; HsProRS (KD [nM]) + ATP, 500 μM ATP, 250 nM MAT379
  Kd: 678 nM
[4]; HsProRS (KD [nM]) −, absence of substrates, 250 nM MAT379
  Kd: 271 nM
[4]; HsProRS - best Kd, SI Fig 16a, values on -log scale
  Kd: 0.351 nM
[4]; Log[inhibitor] (M) -5.000
  TR-FRET dose-response, normalized signal (SI Fig 11): 3.90E-02 and 5.46E-02 and 7.26E-02
  normalized TR-FRET ligand displacement signal, dose-response replicates (SI Fig 6): -7.74E-03 and 7.74E-03
[4]; Log[inhibitor] (M) -5.301
  TR-FRET dose-response, normalized signal (SI Fig 11): 8.66E-02 (2×) and 6.05E-02
  normalized TR-FRET ligand displacement signal, dose-response replicates (SI Fig 6): 1.56E-02 and 1.09E-02
[4]; Log[inhibitor] (M) -5.601
  TR-FRET dose-response, normalized signal (SI Fig 11): 1.54E-01 and 1.44E-01 and 1.56E-01
  normalized TR-FRET ligand displacement signal, dose-response replicates (SI Fig 6): 1.19E-01 and 1.01E-01
[4]; Log[inhibitor] (M) -5.902
  normalized TR-FRET ligand displacement signal, dose-response replicates (SI Fig 6): 2.03E-01 and 2.10E-01
[4]; Log[inhibitor] (M) -5.904
  TR-FRET dose-response, normalized signal (SI Fig 11): 2.33E-01 and 2.21E-01 and 2.09E-01
[4]; Log[inhibitor] (M) -6.203
  normalized TR-FRET ligand displacement signal, dose-response replicates (SI Fig 6): 4.13E-01 and 3.59E-01
[4]; Log[inhibitor] (M) -6.208
  TR-FRET dose-response, normalized signal (SI Fig 11): 3.61E-01 and 2.97E-01 and 3.35E-01
[4]; Log[inhibitor] (M) -6.509
  TR-FRET dose-response, normalized signal (SI Fig 11): 4.65E-01 and 4.29E-01 and 4.89E-01
[4]; Log[inhibitor] (M) -6.513
  normalized TR-FRET ligand displacement signal, dose-response replicates (SI Fig 6): 6.17E-01 and 6.51E-01
[4]; Log[inhibitor] (M) -6.796
  TR-FRET dose-response, normalized signal (SI Fig 11): 6.56E-01 and 6.91E-01 and 6.47E-01
  normalized TR-FRET ligand displacement signal, dose-response replicates (SI Fig 6): 7.87E-01 and 8.56E-01
[4]; Log[inhibitor] (M) -7.108
  TR-FRET dose-response, normalized signal (SI Fig 11): 8.29E-01 and 7.76E-01 and 7.86E-01
  normalized TR-FRET ligand displacement signal, dose-response replicates (SI Fig 6): 8.95E-01 and 9.07E-01
[4]; Log[inhibitor] (M) -7.405
  normalized TR-FRET ligand displacement signal, dose-response replicates (SI Fig 6): 9.57E-01 and 8.55E-01
[4]; Log[inhibitor] (M) -7.409
  TR-FRET dose-response, normalized signal (SI Fig 11): 9.33E-01 and 8.84E-01 and 8.96E-01
[4]; Log[inhibitor] (M) -7.710
  TR-FRET dose-response, normalized signal (SI Fig 11): 1.01E+00 and 8.77E-01 and 8.78E-01
[4]; Log[inhibitor] (M) -7.714
  normalized TR-FRET ligand displacement signal, dose-response replicates (SI Fig 6): 1.05E+00 and 9.22E-01
[4]; Log[inhibitor] (M) -8.000
  TR-FRET dose-response, normalized signal (SI Fig 11): 9.74E-01 and 9.83E-01 and 9.34E-01
  normalized TR-FRET ligand displacement signal, dose-response replicates (SI Fig 6): 1.02E+00 and 1.00E+00
[4]; Log[inhibitor] (M) -8.013
  normalized TR-FRET signal (Fig 2j): 3.80E-01 and 4.41E-01 and 3.90E-01
[4]; Log[inhibitor] (M) -8.301
  TR-FRET dose-response, normalized signal (SI Fig 11): 1.04E+00 and 9.70E-01 and 9.69E-01
[4]; Log[inhibitor] (M) -8.314
  normalized TR-FRET signal (Fig 2j): 5.85E-01 and 7.34E-01 and 6.18E-01
[4]; Log[inhibitor] (M) -8.331
  normalized TR-FRET ligand displacement signal, dose-response replicates (SI Fig 6): 1.04E+00 and 1.00E+00
[4]; Log[inhibitor] (M) -8.574
  normalized TR-FRET ligand displacement signal, dose-response replicates (SI Fig 6): 1.00E+00 and 9.98E-01
[4]; Log[inhibitor] (M) -8.602
  TR-FRET dose-response, normalized signal (SI Fig 11): 1.02E+00 and 9.93E-01 and 9.50E-01
[4]; Log[inhibitor] (M) -8.615
  normalized TR-FRET signal (Fig 2j): 7.72E-01 and 8.28E-01 and 8.16E-01

Source: paper PMC9403976, “Elucidating the path to Plasmodium prolyl-tRNA synthetase inhibitors that overcome halofuginone resistance” (Nature Communications, 2022)
